Measured values published in ChEMBL document CHEMBL6078673, “Synthesis and anti-tumor activity of menthylamine derivatives: Focusing on the potent inhibitory effect of compound W8 on glioma growth” (Bioorg Med Chem, 2025).
≈ marks a conversion by molar mass, not a printed value. Calls of active or inactive are those of the source. The calls are words filed in the database; no cut-off is given here.

Tests used:
U-87 MG [1] = experiment: Antiproliferative activity against human U87 cells assessed as inhibition of cell growth incubated for 24 hrs by CCK-8 assay; assay type: functional, cell-based, U-87MG ATCC
MCF7 = experiment: Antiproliferative activity against human MCF7 cells assessed as inhibition of cell growth incubated for 24 hrs by CCK-8 assay; assay type: functional, cell-based; settings: MCF7, 24 h
HCT-116 = experiment: Antiproliferative activity against human HCT-116 cells assessed as inhibition of cell growth incubated for 24 hrs by CCK-8 assay; assay type: functional, cell-based; settings: HCT-116, 24 h
KYSE-150 cell line = experiment: Antiproliferative activity against human KYSE-150 cell line assessed as inhibition of cell growth incubated for 24 hrs by CCK-8 assay; assay type: functional, cell-based; settings: KYSE-150, 24 h
U-87 MG [2] = experiment: Induction of apoptosis in human U87 cells assessed as increase in number of apoptotic cells at 80 uM incubated for 24 hrs by Annexin V-FITC/PI staining based flow cytometry; assay type: functional, cell-based; settings: U-87MG ATCC
U-87 MG [3] = experiment: Induction of cell cycle arrest in human U87 cells assessed as decrease in number of cells at G1 phase at 80 uM incubated for 24 hrs by RNase/PI staining based flow cytometry; assay type: functional; settings: U-87MG ATCC
U-87 MG [4] = experiment: Induction of cell cycle arrest in human U87 cells assessed as decrease in number of cells at G2 phase at 80 uM incubated for 24 hrs by RNase/PI staining based flow cytometry; assay type: functional; settings: U-87MG ATCC
U-87 MG [5] = experiment: Induction of cell cycle arrest in human U87 cells assessed as increase in number of cells at S phase at 80 uM incubated for 24 hrs by RNase/PI staining based flow cytometry; assay type: functional; settings: U-87MG ATCC
U-87 MG [6] = experiment: Inhibition of cell migration in human U87 cells at 80 uM incubated for 48 hrs by scratch assay; assay type: functional, cell-based; settings: U-87MG ATCC
[7] = Kinetic solubility in PBS at pH 7.4 incubated under shaking condition for 24 hrs by LC-MS/MS analysis; assay type: physicochemical; settings: read-out: Kinetic_solubility
[8] = Apparent permeability across apical to basolateral side in human Caco-2 cells at 2 uM incubated for 2 hrs by LC-MS/MS analysis; assay type: ADME, cell-based; settings: for Papp A→B at 2 h, 2 µM: Caco-2
[9] = Apparent permeability across basolateral to apical side in human Caco-2 cells at 2 uM incubated for 2 hrs by LC-MS/MS analysis; assay type: ADME, cell-based; settings: for Papp B→A at 2 h, 2 µM: Caco-2
[10] = Efflux ratio of apparent permeability from basolateral to apical side over apical to basolateral side in human Caco-2 cells at 2 uM incubated for 2 hr by LC-MS/MS analysis; assay type: ADME, cell-based; settings: for efflux ratio at 2 h, 2 µM: Caco-2
[11] = Metabolic stability in liver microsomes (unknown origin) assessed as half life incubated for 60 mins by LC-MS/MS analysis; assay type: ADME, Microsome
[12] = Metabolic stability in liver microsomes (unknown origin) assessed as compound remaining incubated for 60 mins by LC-MS/MS analysis; assay type: ADME, Microsome; settings: read-out: Stability
U-87 MG [13] = experiment: Induction of apoptosis in human U87 cells at 80 uM incubated for 24 hrs by Annexin V-FITC/PI staining based flow cytometry; assay type: functional
U-87 MG [14] = experiment: Induction of cell cycle arrest in human U87 cells assessed as increase in number of cells at G1 phase at 80 uM incubated for 24 hrs by RNase/PI staining based flow cytometry; assay type: functional; settings: U-87MG ATCC
U-87 MG [15] = experiment: Induction of cell cycle arrest in human U87 cells assessed as increase in number of cells at G2 phase at 80 uM incubated for 24 hrs by RNase/PI staining based flow cytometry; assay type: functional; settings: U-87MG ATCC
U-87 MG [16] = experiment: Induction of cell cycle arrest in human U87 cells assessed as decrease in number of cells at S phase at 80 uM incubated for 24 hrs by RNase/PI staining based flow cytometry; assay type: functional; settings: U-87MG ATCC

Structure (SMILES)	IC50 (U-87 MG [1]) [µM]	IC50 (MCF7) [µM]	IC50 (HCT-116) [µM]	IC50 (KYSE-150 cell line) [µM]	Activity (U-87 MG [2])	Activity (U-87 MG [3])	Activity (U-87 MG [4])	Activity (U-87 MG [5])	inhibition (U-87 MG [6])	solubility kinetic at 24 h [7] [µM]	Papp A→B at 2 h, 2 µM [8] [×10⁻⁶ cm/s]	Papp B→A at 2 h, 2 µM [9] [×10⁻⁶ cm/s]	efflux ratio at 2 h, 2 µM [10]	half-life [11] [min]	remaining at 1 h [12] [%]	other results
CC(C)[C@@H]1CC[C@@H](C)C[C@H]1O [LEVOMENTHOL]	198	1250	771	784	inactive	inactive	inactive	inactive	Active	–	–	–	–	–	–	–
CC(C)[C@@H]1CC[C@@H](C)C[C@@H]1OC(=O)c1ccc([N+](=O)[O-])cc1	109	2670	787	3510	Active; Significantly Increased Activity Observed	inactive	inactive	inactive	Active	0.031 (≈ 0.00947 µg/mL)	24.4	12.1	0.51	25	33.3	Activity (U-87 MG [13]; U-87MG ATCC): Active
C[C@H]1O[C@@H](O[C@H]2[C@@H](O)C[C@H](O[C@H]3[C@@H](O)C[C@H](O[C@H]4CC[C@@]5(C)[C@H](CC[C@@H]6[C@@H]5C[C@@H](O)[C@]5(C)[C@@H](C7=CC(=O)OC7)CC[C@]65O)C4)O[C@@H]3C)O[C@@H]2C)C[C@H](O)[C@@H]1O [DIGOXIN]	–	–	–	–	–	–	–	–	–	–	0.15	18.6	127	–	–	–
COCCc1ccc(OCC(O)CNC(C)C)cc1 (stereo not drawn) [METOPROLOL]	–	–	–	–	–	–	–	–	–	–	25.1	–	–	–	–	–
CC(C)[C@H]1CC[C@@H](C)C[C@@H]1N	1740	> 6450	> 318	> 6450	Active; Significantly Increased Activity Observed	–	–	–	Active	150 (≈ 23.3 µg/mL)	–	–	–	> 145	75.4	Papp ([8]; caco-2, 2 h, 2 µM): 40.16 10^-6 cm/s; Papp ([9]; caco-2, 2 h, 2 µM): 23.22 10^-6 cm/s; Ratio ([10]; caco-2, 2 h, 2 µM): 0.5; Activity (U-87 MG [13]; U-87MG ATCC): Active; Activity (U-87 MG [14]): Active; Activity (U-87 MG [15]): Active; Activity (U-87 MG [16]): Active
CC(C)[C@H]1CC[C@H](C)C[C@@H]1N	3210	6450	6450	6450	Active; Significantly Increased Activity Observed	inactive	inactive	inactive	Active	146 (≈ 22.6 µg/mL)	46	23.5	0.53	> 145	79.4	Activity (U-87 MG [13]): 90%
CC(C)[C@H]1CC[C@H](C)C[C@H]1N1C(=O)c2ccccc2C1=O	65.3	1490	57.2	> 972	Active; Significantly Increased Activity Observed	–	–	–	Active	0.03 (≈ 0.00856 µg/mL)	25.7	12.6	0.52	> 145	80.4	Activity (U-87 MG [13]; U-87MG ATCC): Active; Activity (U-87 MG [14]): Active; Activity (U-87 MG [15]): Active; Activity (U-87 MG [16]): Active
CC(C)(C)NCC(O)COc1cccc2c1CC(O)C(O)C2 (stereo not drawn) [NADOLOL]	–	–	–	–	–	–	–	–	–	–	0.04	–	–	–	–	–
O=C(O)Cc1ccccc1Nc1c(Cl)cccc1Cl [DICLOFENAC]	–	–	–	–	–	–	–	–	–	–	–	–	–	5.32	97.8	–
CC(C)[C@@H]1CC[C@@H](C)C[C@H]1OC(=O)c1ccc([N+](=O)[O-])cc1	92.7	907	649	> 3130	Active; Significantly Increased Activity Observed	inactive	inactive	inactive	Active	0.61 (≈ 0.186 µg/mL)	24	11.2	0.48	25.2	32.6	Activity (U-87 MG [13]; U-87MG ATCC): Active
C[C@]12CC[C@H]3[C@@H](CCC4=CC(=O)CC[C@@]43C)[C@@H]1CC[C@@H]2O [TESTOSTERONE]	–	–	–	–	–	–	–	–	–	–	–	–	–	–	91	–
CC(C)[C@H]1CC[C@H](C)C[C@@H]1O [RACEMENTHOL]	679	3680	1140	3650	inactive	inactive	inactive	inactive	Active	–	–	–	–	–	–	–
Cn1nnc2c(C(N)=O)ncn2c1=O [TEMOZOLOMIDE]	1500	–	–	–	–	–	–	–	–	–	–	–	–	–	–	–
CC(C)[C@H]1CC[C@@H](C)C[C@H]1N	224	3510	848	4240	Active; Significantly Increased Activity Observed	Active	Active	Active	Active	147 (≈ 22.8 µg/mL)	41.8	24.7	0.59	> 145	79.4	Activity (U-87 MG [13]): 90%
